This note sets out measurements from ChEMBL document CHEMBL1134351, “Synthesis of new cyclitol compounds that influence the activity of phosphatidylinositol 4-kinase isoform, PI4K230” (J Med Chem, 2001).

Sequence of Phosphatidylinositol 4-kinase alpha (Bos taurus) (O02811 whole entry): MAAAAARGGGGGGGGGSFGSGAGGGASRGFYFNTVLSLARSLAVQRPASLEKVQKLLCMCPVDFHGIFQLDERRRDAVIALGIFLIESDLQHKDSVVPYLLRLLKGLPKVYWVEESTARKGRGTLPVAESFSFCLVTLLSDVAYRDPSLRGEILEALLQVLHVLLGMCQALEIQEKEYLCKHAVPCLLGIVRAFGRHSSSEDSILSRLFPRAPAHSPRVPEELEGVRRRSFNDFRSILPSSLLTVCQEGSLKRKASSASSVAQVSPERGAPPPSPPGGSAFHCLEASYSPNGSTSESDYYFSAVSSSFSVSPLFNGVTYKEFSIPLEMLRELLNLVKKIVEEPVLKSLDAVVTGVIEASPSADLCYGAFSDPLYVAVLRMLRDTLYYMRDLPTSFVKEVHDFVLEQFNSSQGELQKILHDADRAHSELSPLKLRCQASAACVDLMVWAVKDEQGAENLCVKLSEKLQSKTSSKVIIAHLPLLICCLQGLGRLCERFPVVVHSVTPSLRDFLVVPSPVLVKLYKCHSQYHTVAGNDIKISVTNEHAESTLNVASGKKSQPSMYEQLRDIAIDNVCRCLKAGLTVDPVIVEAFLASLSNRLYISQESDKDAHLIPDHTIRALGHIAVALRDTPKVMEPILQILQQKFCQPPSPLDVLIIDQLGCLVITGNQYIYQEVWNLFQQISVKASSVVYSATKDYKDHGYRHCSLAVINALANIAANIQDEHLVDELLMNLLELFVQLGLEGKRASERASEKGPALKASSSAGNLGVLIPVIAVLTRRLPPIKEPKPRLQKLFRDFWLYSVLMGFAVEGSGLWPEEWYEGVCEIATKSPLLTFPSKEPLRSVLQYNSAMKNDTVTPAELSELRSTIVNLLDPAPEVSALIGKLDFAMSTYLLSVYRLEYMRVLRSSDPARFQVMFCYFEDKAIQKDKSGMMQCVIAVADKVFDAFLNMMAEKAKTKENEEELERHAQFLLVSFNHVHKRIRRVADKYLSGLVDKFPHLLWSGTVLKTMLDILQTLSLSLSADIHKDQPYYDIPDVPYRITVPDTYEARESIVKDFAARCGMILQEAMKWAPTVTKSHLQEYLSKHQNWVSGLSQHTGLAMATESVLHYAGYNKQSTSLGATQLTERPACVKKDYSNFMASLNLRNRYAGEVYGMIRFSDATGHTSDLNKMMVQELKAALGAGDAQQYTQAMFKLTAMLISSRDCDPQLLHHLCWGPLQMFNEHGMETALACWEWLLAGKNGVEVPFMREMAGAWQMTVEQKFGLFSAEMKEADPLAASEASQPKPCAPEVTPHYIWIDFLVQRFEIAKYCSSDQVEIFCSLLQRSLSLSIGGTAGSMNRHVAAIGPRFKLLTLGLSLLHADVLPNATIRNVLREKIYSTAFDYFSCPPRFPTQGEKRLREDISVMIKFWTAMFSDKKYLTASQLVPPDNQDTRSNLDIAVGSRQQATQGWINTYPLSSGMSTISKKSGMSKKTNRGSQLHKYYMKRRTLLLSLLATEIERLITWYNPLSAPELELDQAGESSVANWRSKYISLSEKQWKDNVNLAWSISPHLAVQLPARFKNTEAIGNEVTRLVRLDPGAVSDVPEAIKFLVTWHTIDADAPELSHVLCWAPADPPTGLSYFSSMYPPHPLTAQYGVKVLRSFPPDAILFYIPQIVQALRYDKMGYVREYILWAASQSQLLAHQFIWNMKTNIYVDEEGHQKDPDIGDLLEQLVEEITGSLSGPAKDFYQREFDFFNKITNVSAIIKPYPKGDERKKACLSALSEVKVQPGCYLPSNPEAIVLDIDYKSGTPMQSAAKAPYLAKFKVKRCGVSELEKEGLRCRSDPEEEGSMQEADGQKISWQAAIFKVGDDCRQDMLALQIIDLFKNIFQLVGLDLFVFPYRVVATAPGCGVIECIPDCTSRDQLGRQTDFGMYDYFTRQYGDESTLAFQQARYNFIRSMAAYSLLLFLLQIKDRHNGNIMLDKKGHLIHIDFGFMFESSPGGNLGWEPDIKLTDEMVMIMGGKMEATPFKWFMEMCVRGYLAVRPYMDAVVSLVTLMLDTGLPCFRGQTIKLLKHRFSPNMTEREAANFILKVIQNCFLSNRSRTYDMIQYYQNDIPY

This assay concerns the target Phosphatidylinositol 4-kinase alpha (Bos taurus) (UniProt O02811). Kind of assay: Inactivation of the enzyme PI4K230 from bovine brain membranes. More on the design: concentration or dose not given beside the values.
For `COC(=O)/C=C1\C[C@H](O)C[C@@H](N=[N+]=[N-])[C@@H]1OCc1ccccc1`, the Remaining activity is 70%. Molecule `CC(=O)O[C@@H]1CC(=O)[C@@H](OC(=O)c2ccccc2)[C@H](OC(=O)c2ccccc2)C1` yielded a Remaining activity of 20%. `COC(=O)/C=C1\C[C@H](O)C[C@@H](N=[N+]=[N-])[C@@H]1OC(=O)c1ccccc1` came in with a Remaining activity of 63%. In the case of `CC1(C)OC2C=CC(=O)CC2O1` (centres undefined), the Remaining activity amounted to 57%. With `[N-]=[N+]=N[C@@H]1CC=CC(=O)[C@H]1OCc1ccccc1` the figure was 85%. Take `[N-]=[N+]=N[C@@H]1C[C@@H](O)CC(=O)[C@H]1OCc1ccccc1`: the Remaining activity was found to be 85%. Turning to `CC(=O)O[C@@H]1C[C@@H](N=[N+]=[N-])[C@H](OC(=O)c2ccccc2)C2(C1)SCCS2`, the Remaining activity came to 96%. With `CC(=O)O[C@@H]1CC(=O)[C@@H](OCc2ccccc2)[C@H](N=[N+]=[N-])C1` the figure was 82%; with `O=C(O[C@@H]1C(=O)C=CC[C@H]1OC(=O)c1ccccc1)c1ccccc1`, 8%. With `[N-]=[N+]=N[C@@H]1C[C@@H](O)C/C(=N\O)[C@H]1OC(=O)c1ccccc1` the figure was 66%. The molecule `CC1(C)OC2CC(=O)C[C@@H](O)C2O1` (some centres undefined) yielded a Remaining activity of 80%. In turn, `[N-]=[N+]=N[C@@H]1C[C@@H](O)CC(=O)[C@H]1OC(=O)c1ccccc1` returned a Remaining activity of 80%. As to `O=C1C[C@H](O)CC=C1OC(=O)c1ccccc1`, the Remaining activity worked out at 51%.

For the molecule `COC(=O)/C=C1\C[C@H](O)C[C@@H](OC(=O)c2ccccc2)[C@@H]1OC(=O)c1ccccc1`, the Remaining activity is 64%. `[N-]=[N+]=N[C@@H]1C[C@@H](O)CC2(SCCS2)[C@H]1OC(=O)c1ccccc1`: the Remaining activity was determined as 96%. `O=C(O[C@@H]1C(=O)C[C@H](O)C[C@H]1OC(=O)c1ccccc1)c1ccccc1` displayed a Remaining activity of 84%.

In turn, `[N-]=[N+]=N[C@@H]1CC=CC(=O)[C@H]1OC(=O)c1ccccc1` displayed a Remaining activity of 5%. With `CC(=O)O[C@@H]1[C@@H](NC(=O)c2ccccc2)[C@@H](O)CC(=O)[C@H]1OC(C)=O`, the Remaining activity turned out to be 56%.

With `CC(=O)O[C@H]1CC(=O)[C@@H](OC(=O)c2ccccc2)[C@H](N=[N+]=[N-])C1`, the Remaining activity came to 10%.
